pEC50: −log10 of the molar value. Read-outs that look alike come from different tables or passages of the source.
Columns and labels:
[1] = tested on: IL-1-induced COX-2 expression; assay: IL-1-induced COX-2 expression in S112 human dermal fibroblasts (MIF-dependent bioassay); type: cell-based; conditions: Homo sapiens, Fibroblast; for inhibition at 25 µM: compound 25 μM; for inhibition at 50 µM: read-out: % inhibition of IL-1-induced COX-2 expression
Method: The activity of compounds was studied in a bioassay utilising MIF-dependent activation of human dermal fibroblasts. […] IL-1-induced COX-2 expression is therefore a MIF-dependent event. […] Prior to experimentation, cells were seeded at 10^5 cells/ml in RPMI/0.1% BSA for 18 hours. […] After 6 hours, cells were collected and intracellular COX-2 protein determined by permeabilisation flow cytometry. […] Cellular fluorescence was determined using a flow cytometer. At least 5000 events were counted for each reading, each of which was performed in duplicate, and the results expressed in mean fluorescence intensity (MFI) after subtraction of negative control-labelled cell fluorescence. The effect of each compound was determined by subtracting the IL-1+compound-treated cell MFI from the IL-1-treated cell (control) MFI and expressed as % inhibition. In each case the % inhibition of IL-1-induced COX-2 expression is expressed as the mean, or mean±SEM where results are available from multiple experiments.

[2] = tested on: antigen-specific T cell activation; assay: antigen-specific (mBSA) activation of splenic T lymphocytes, 3H-thymidine incorporation; type: cell-based, mice; conditions: Mus musculus, T-cell, read-out: EC50, inhibition of T cell activation
Method: C57BL6/J male mice, aged 7-10 weeks old, were immunised with 200 μg of methylated bovine serum albumin (mBSA) dissolved in 20 μL of saline, emulsified in 200 μL of Freund's complete adjuvant (FCA) by subcutaneous injection. Seven (7) days later mice received a booster immunisation with 100 μg mBSA in 10 μL saline plus 100 μL FCA by subcutaneous injection. After a further seven (7) days mice were killed and spleens collected aseptically into Hanks buffered saline solution (HBSS). A single cell suspension was prepared in Petri dishes by flushing DMEM using a 26G needle and 2 mL syringe. The resulting cell suspension was centrifuged for 5-7 minutes and supernatant discarded. Erythrocytes were lysed using a solution containing 0.579% NH4Cl, 0.000037% EDTA, and 0.1% NaHCO3 in a 37° C. water bath. Tubes were then filled with DMEM and centrifuged for 5-7 minutes. The cell-containing pellet was then resuspended in DMEM containing 5% fetal calf serum TICS) and 0.05% 2-mercapto-ethanol at a concentration of 1×10^6 cells/mL and plated at 1×10^5 cells/well in 96-well plastic tissue culture plates. Test substances (compound or vehicle) were added and incubated for 1 hour in a 37° C., 5% CO2 incubator. The specific stimulating antigen, mBSA, was then added at 10-50 μg/ml and plates incubated for 30 hours in a 37° C., 5% CO2 incubator. Tritiated ^3H-thymidine was then added at a concentration of 0.5 μCi/well for a further 18 hours. Cells were harvested on a Packard cell harvester, and the harvested material added to 750 μL/tube scintillation fluid. Scintillation counts were read on a Wallac beta-emission counter.
The concentration at which T cell activation was suppressed by 50% compared to vehicle-only-treated cells (EC50) was calculated using Prism® software. […] Further compounds were also tested for their ability to inhibit antigen-specific T cell activation as a marker of the inhibition of the cytokine or biological activity of MIF using this assay. Table 5 lists the EC50 for each compound in this assay, performed with concentrations of mBSA of either 50 or 10 μg/ml.

[3] = tested on: murine peritoneal macrophage nitric oxide production; assay: inhibition of peritoneal macrophage nitric oxide release (Greiss assay); type: cell-based, mice; conditions: Mus musculus, LPS 10 ng/ml and interferon-γ 10 units/ml, 24 hours, read-out: % Nitrite concentration inhibition from control
Method: C57BL6/J male mice were injected intraperitoneally with 2 ml of thioglycollate. Five (5) days later peritoneal macrophages were collected by lavaging the peritoneum of anaesthetized mice with 3 ml of cold Hanks buffered saline solution. Cells from several mice were pooled, washed and re-suspended in DMEM supplemented with 5% FCS. Cells were plated in 96 well plastic tissue culture plates at 1×10^5 cells/well. Cells were treated with compound or vehicle for 1 hour in a 5% CO2 incubator at 37° C. Cells were then treated with LPS (10 ng/ml) and recombinant human interferon-γ (10 units/ml) and incubated for 24 hours. After 24 hours, 50 μl of supernatant from each well was carefully removed and transferred to ELISA plates. The concentration of nitrite in culture supernatants was measured by the Greiss assay (27). The results were defined as the percentage inhibition of nitrite concentration in compound-treated cell culture supernatants compared to that of vehicle-treated cells.

[4] = S112 cells, IL-1 0.1 ng/ml, 6 hours
[5] = compound 50 μM, S112 cells, IL-1 0.1 ng/ml, 6 hours

Row | Compound | pEC50 ([2]; mBSA 10 μg/ml) | pEC50 ([2]; mBSA 50 μg/ml) | inhibition at 50 µM [1, 5] | also measured
1 | Cc1cc2[nH]c(=O)[nH]c2cc1[N+](=O)[O-] [Compound 22, 5-Methyl-6-nitrobenzimidazol-2-one] | < 4.00 | < 4.00 | – | inhibition at 25 µM [1, 4]: 30%
2 | Cc1ccc2[nH]c(=O)[nH]c2c1 [Compound 2, 5-Methylbenzimidazol-2-one] | – | – | – | inhibition at 50 µM ([1]; 6 h): 13%; melting point: 300 to 302 °C; pEC50 [2]: 5.14
3 | CCCCCNS(=O)(=O)c1ccc2[nH]c(=O)[nH]c2c1 [Compound 27, 2(3H)-benzimidazolone-5-sulfonic acid pentyl amide] | 5.04 | 5.89 | 37.4% | melting point: 316 to 318 °C
4 | Cc1cc2[nH]c(=O)[nH]c2cc1N [Compound 23, 5-Amino-6-methylbenzimidazol-2-one] | – | – | 8.5% | –
5 | CCCCCSC(=O)c1ccc2[nH]c(=O)[nH]c2c1 [Compound 25, Pentyl-benzimidazol-2-one-5-carbothioate] | < 4.00 | < 4.00 | – | –
6 | O=C(O)CCCC(=O)c1ccc2[nH]c(=O)[nH]c2c1 [Compound 26, 5-(benzimidazol-2(3H)-one-6-yl)-5-oxopentanoic acid] | 4.99 | 5.64 | 9.8% | –
7 | CC(=O)OCC1OC(OC(=O)c2ccc3[nH]c(=O)[nH]c3c2)C(OC(C)=O)C(OC(C)=O)C1OC(C)=O (stereo not drawn) [Compound 16, 3,4,5-tris(acetyloxy)-6-[(acetyloxy)methyl]tetrahydro-2H-pyran-2-yl-benzimidazole-2-one-5-carboxylate] | 4.62 | 4.59 | – | –
8 | CCCCCOC(=O)c1ccc2[nH]c(=S)[nH]c2c1 [Compound 15, Pentyl-benzimidazole-2-thioxo-5-carboxylate] | 5.03 | 4.99 | 33.1% | –
9 | Cc1c(Br)c(Br)c2[nH]c(=O)[nH]c2c1Br [Compound 20, 4,5,7-Tribromo-6-methylbenzimidazol-2-one] | – | – | – | inhibition at 25 µM [1, 4]: 28.5%
10 | CCCCCOS(=O)(=O)c1ccc2[nH]c(=O)[nH]c2c1 [Compound 28, 2(3H)-benzimidazolone-5-sulfonic acid pentyl ester] | 5.66 | 5.13 | – | –
11 | COC(=O)C(Cc1ccccc1)NC(=O)c1ccc2[nH]c(=O)[nH]c2c1 (stereo not drawn) [Compound 11, methyl 2-{[(2-oxo-2,3-dihydro-1H-1,3-benzimidazol-5-yl)carbonyl]amino}-3-phenyl propanoate] | 4.35 | 4.29 | 17.5% | inhibition at 25 µM ([3]; compound 25 μM): 3.1%; inhibition at 50 µM ([3]; compound 50 μM): 28.1%; inhibition at 100 µM ([3]; compound 100 μM): 65.5%
12 | CCCCNC(=N)c1ccc2[nH]c(=O)[nH]c2c1 [Compound 32, N-butyl-2-oxo-2,3-dihydro-1H-1,3-benzimidazole-5-carboximidamide] | < 4.00 | < 4.00 | 13.8% | melting point: 168 °C
13 | O=C(OCCOCCO)c1ccc2[nH]c(=O)[nH]c2c1 [Compound 6, 5[2(1-oxy-2-hydroxyethyl)ethyl]benzimidazol-2-one-5-carboxylate] | 4.59 | < 4.00 | 17.8% | melting point: 227 to 228 °C
14 | CCCCCc1ccc2[nH]c(=O)[nH]c2c1 [Compound 34, 5-Pentylbenzimidazol-2-one] | 4.87 | 4.30 | – | inhibition at 10 µM ([1]; compound 10 μM, S112 cells, IL-1 0.1 ng/ml, 6 hours): 14.9%
15 | COC(=O)c1ccc2[nH]c(=O)[nH]c2c1 [Compound 7, benzimidazol-2-one-5-methanoate] | 4.47 | 4.35 | 16.7% | –
16 | CCCCCCC(=O)c1ccc2c(c1)CC(=O)O2 [Compound 33] | 4.61 | 4.86 | – | melting point: 64 to 67 °C
17 | O=C(NC(CO)C(=O)O)c1ccc2[nH]c(=O)[nH]c2c1 (stereo not drawn) [Compound 10, 3-hydroxy-2-{[(2-oxo-2,3-dihydro-1H-1,3-benzimidazol-5-yl)carbonyl]amino}propanoic acid] | < 4.00 | 4.11 | 19.3% | –
18 | O=C(NC(Cc1ccccc1)C(=O)O)c1ccc2[nH]c(=O)[nH]c2c1 (stereo not drawn) [Compound 12, 2-{[(2-oxo-2,3-dihydro-1H-1,3-benzimidazol-5-yl)carbonyl]amino}-3-phenyl propanoic acid] | < 4.00 | 4.11 | 19.9% | –
19 | CCOC(=O)c1ccc2[nH]c(=O)[nH]c2c1 [Compound 8] | 4.59 | < 4.00 | 19.9% | –
20 | Cc1cc2[nH]c(=O)[nH]c2cc1Br [Compound 17, 5-Bromo-6-methybenzimidazol-2-one] | 5.54 | 4.97 | 22.4% | –
21 | COC(=O)C(CO)NC(=O)c1ccc2[nH]c(=O)[nH]c2c1 (stereo not drawn) [Compound 9, methyl 3-hydroxy-2-{[(2-oxo-2,3-dihydro-1H-1,3-benzimidazol-5-yl)carbonyl]amino}propanoate] | 4.11 | 4.21 | 14.9% | –
22 | Cc1cc2[nH]c(=O)[nH]c2cc1NC(=O)CSc1ncccn1 [Compound 24] | – | – | 30.3% | –
23 | Cc1cc2[nH]c(=O)[nH]c2cc1O [Compound 18, 5-Hydroxy-6-methybenzimidazol-2-one] | 4.71 | 4.47 | 2.4% | –

— patent publication US7709514B2, “Therapeutic molecules and methods-1” (Cortical Pty Ltd, priority 2002, dated 2010)
